Literature values, collected in patent US20240058414A1, “METHODS OF TREATING MELANOCORTIN-4 RECEPTOR PATHWAY-ASSOCIATED DISORDERS” (RHYTHM PHARMACEUTICALS, INC., priority 2020, published 2024).

Columns and labels:
[1] = clinical trials; Chen et al. J. Clin. Endocrinol. Metab. 2015
[2] = patients with POMC and LEPR deficiency obesity, earlier pivotal studies

CC(=O)N[C@@H](CCCNC(=N)N)C(=O)N[C@H]1CSSC[C@@H](C(N)=O)NC(=O)[C@H](Cc2c[nH]c3ccccc23)NC(=O)[C@H](CCCNC(=N)N)NC(=O)[C@@H](Cc2ccccc2)NC(=O)[C@H](Cc2cnc[nH]2)NC(=O)[C@@H](C)NC1=O [setmelanotide, Ac-Arg-c(Cys-D-Ala-His-D-Phe-Arg-Trp-Cys)-NH2]
adverse effect on blood pressure [1]: has not been shown to adversely affect blood pressure
reduction in hunger [2]: statistically significant and clinically meaningful reduction in hunger
weight loss [2]: rapid and sustained significant and clinically meaningful weight loss
